Test results from patent US20260022142A1, “MACROCYCLIC IMMUNOMODULATORS” (Bristol-Myers Squibb Company, priority 2022, published 2026).
Bridge positions count the residues as written; N and C are the ends. Square brackets hold non-standard residues; d marks the D form. Peptide text beside a SMILES is read from it. * marks the point of attachment. ξ: configuration not given here. Bip = N[C@@H](Cc1ccc(-c2ccccc2)cc1)C(=O)O; Phe(3-Me) = Cc1cccc(C[C@H](N)C(=O)O)c1; Val(3-OH) = CC(C)(O)[C@H](N)C(=O)O; Cha = N[C@@H](CC1CCCCC1)C(=O)O; Cit = NC(=O)NCCC[C@H](N)C(=O)O; Thr(3ξ) = CC(O)[C@H](N)C(=O)O; Tle = CC(C)(C)[C@H](N)C(=O)O; 12Ado = NCCCCCCCCCCCC(=O)O; Carboxymethyl = O=C(O)C*; Orn = NCCC[C@H](N)C(=O)O; Aun = NCCCCCCCCCCC(=O)O; Dab = NCC[C@H](N)C(=O)O; Dap = NC[C@H](N)C(=O)O

Biological target: T1, PD-1/PD-L1 interaction (PE-labeled human PD-L1-Ig binding to Jurkat cell line over-expressing human PD-1) (Homo sapiens, UniProt Q15116)
T1 construct: expressed in transfected cells; host or cells: Jurkat
Test: Jurkat-PD-1 Cell Binding High-Content Screening Assay (CBA)
Type: cell-based
Conditions: Jurkat cell line over-expressing human PD-1; PE-labeled PD-L1-Ig 20 nM final; read-out: Jurkat hPD1-PDL1 IC50
How it was run: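 Jurkat cells stably over-expressing human PD-1 were seeded in DMEM with 10% fetal calf serum and pre-incubated with compound for 2 h at 37° C. PE-labeled human PD-L1-Ig was then added at 20 nM final for 1 hour, after which cells were fixed with paraformaldehyde, Hoechst-stained and imaged by high-content microscopy.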

T1 sequence (Q15116 25-288): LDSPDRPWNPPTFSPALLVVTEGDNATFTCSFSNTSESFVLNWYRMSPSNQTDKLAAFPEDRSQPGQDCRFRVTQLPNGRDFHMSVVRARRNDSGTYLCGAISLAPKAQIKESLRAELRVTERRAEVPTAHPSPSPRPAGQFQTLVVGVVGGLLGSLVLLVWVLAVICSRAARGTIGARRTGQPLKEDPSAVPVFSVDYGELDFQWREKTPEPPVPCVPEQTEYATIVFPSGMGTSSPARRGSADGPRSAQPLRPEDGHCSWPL

IC50 [µM] | Compound
0.121 | Cc1cccc(C[C@@H]2NC(=O)[C@H](CC(=O)O)NC(=O)[C@H](Cc3ccc(OCC(=O)O)cc3)NC(=O)[C@H](CCCNC(=N)N)NC(=O)CSC[C@@H](C(=O)N[C@H](CC(N)=O)C(=O)NCCCCCCCCCCC(=O)O)NC(=O)[C@H](C(C)O)NC(=O)[C@H](C(C)O)NC(=O)[C@H](CC3CCCCC3)NC(=O)[C@H](CCN)NC(=O)[C@@H](CC(C)C)NC(=O)[C@H](CCCN)NC(=O)[C@H](Cc3ccc(OCC(=O)O)cc3)NC(=O)[C@H](Cc3ccc(-c4ccccc4)cc3)NC(=O)[C@H](Cc3ccc(OCC(=O)O)cc3)NC2=O)c1 (stereo partly drawn) [Compound 3523] ({CH2CO}-RY(Carboxymethyl)D[Phe(3-Me)]Y(Carboxymethyl)[Bip]Y(Carboxymethyl)[Orn][dL][Dab][Cha][Thr(3ξ)][Thr(3ξ)]C[dN][Aun]-OH; thioether N-14)
0.0408 | Cc1cccc(C[C@@H]2NC(=O)[C@H](CC(=O)O)NC(=O)[C@H](Cc3ccc(OCC(=O)O)cc3)NC(=O)[C@H](CCCNC(=N)N)NC(=O)CSC[C@@H](C(=O)N[C@H](CC(N)=O)C(=O)NCCCCCCCCCCC(=O)O)NC(=O)[C@H](C(C)O)NC(=O)[C@H](C(C)O)NC(=O)[C@H](CC3CCCCC3)NC(=O)[C@H](CCN)NC(=O)[C@@H](CC(C)C)NC(=O)[C@H](CCCN)NC(=O)[C@H](Cc3ccc(OCC(=O)O)cc3)NC(=O)[C@H](Cc3ccc(-c4ccccc4)cc3)NC(=O)[C@H](Cc3ccc(O)cc3)NC2=O)c1 (stereo partly drawn) [Compound 3524] ({CH2CO}-RY(Carboxymethyl)D[Phe(3-Me)]Y[Bip]Y(Carboxymethyl)[Orn][dL][Dab][Cha][Thr(3ξ)][Thr(3ξ)]C[dN][Aun]-OH; thioether N-14)
0.346 | Cc1cccc(C[C@@H]2NC(=O)[C@H](CC(=O)O)NC(=O)[C@H](Cc3ccc(OCC(=O)O)cc3)NC(=O)[C@H](CCCNC(=N)N)NC(=O)CSC[C@@H](C(=O)N[C@H](CC(N)=O)C(=O)NCCCCCCCCCCC(=O)O)NC(=O)[C@H](C(C)O)NC(=O)[C@H](CO)NC(=O)[C@H](CC3CCCCC3)NC(=O)[C@H](CCN)NC(=O)[C@@H](CC(C)C)NC(=O)[C@H](CCCN)NC(=O)[C@H](Cc3ccc(OCC(=O)O)cc3)NC(=O)[C@H](Cc3ccc(-c4ccccc4)cc3)NC(=O)[C@H](Cc3c[nH]c4ccccc34)NC2=O)c1 (stereo partly drawn) [Compound 3525] ({CH2CO}-RY(Carboxymethyl)D[Phe(3-Me)]W[Bip]Y(Carboxymethyl)[Orn][dL][Dab][Cha]S[Thr(3ξ)]C[dN][Aun]-OH; thioether N-14)
0.112 | Cc1cccc(C[C@@H]2NC(=O)[C@H](CC(=O)O)NC(=O)[C@H](Cc3ccc(OCC(=O)O)cc3)NC(=O)[C@H](CCCNC(=N)N)NC(=O)CSC[C@@H](C(=O)N[C@H](CC(N)=O)C(=O)NCCCCCCCCCCC(=O)O)NC(=O)[C@H](CO)NC(=O)[C@H](C(C)O)NC(=O)[C@H](CC3CCCCC3)NC(=O)[C@H](CCN)NC(=O)[C@@H](CC(C)C)NC(=O)[C@H](CCCN)NC(=O)[C@H](Cc3ccc(OCC(=O)O)cc3)NC(=O)[C@H](Cc3ccc(-c4ccccc4)cc3)NC(=O)[C@H](Cc3ccc(OCC(=O)O)cc3)NC2=O)c1 (stereo partly drawn) [Compound 3526] ({CH2CO}-RY(Carboxymethyl)D[Phe(3-Me)]Y(Carboxymethyl)[Bip]Y(Carboxymethyl)[Orn][dL][Dab][Cha][Thr(3ξ)]SC[dN][Aun]-OH; thioether N-14)
0.0514 | Cc1cccc(C[C@@H]2NC(=O)[C@H](CC(=O)O)NC(=O)[C@H](Cc3ccc(OCC(=O)O)cc3)NC(=O)[C@H](CCCNC(=N)N)NC(=O)CSC[C@@H](C(=O)N[C@H](CC(N)=O)C(=O)NCCCCCCCCCCC(=O)O)NC(=O)[C@H](CO)NC(=O)[C@H](C(C)(C)C)NC(=O)[C@H](CC3CCCCC3)NC(=O)[C@H](CCN)NC(=O)[C@@H](CC(C)C)NC(=O)[C@H](CCCN)NC(=O)[C@H](Cc3ccc(OCC(=O)O)cc3)NC(=O)[C@H](Cc3ccc(-c4ccccc4)cc3)NC(=O)[C@H](Cc3ccc(OCC(=O)O)cc3)NC2=O)c1 [Compound 3527] ({CH2CO}-RY(Carboxymethyl)D[Phe(3-Me)]Y(Carboxymethyl)[Bip]Y(Carboxymethyl)[Orn][dL][Dab][Cha][Tle]SC[dN][Aun]-OH; thioether N-14)
0.0878 | Cc1cccc(C[C@@H]2NC(=O)[C@H](CC(=O)O)NC(=O)[C@H](Cc3ccc(OCC(=O)O)cc3)NC(=O)[C@H](CCCNC(=N)N)NC(=O)CSC[C@@H](C(=O)N[C@H](CC(N)=O)C(=O)NCCCCCCCCCCC(=O)O)NC(=O)[C@H](CCC(N)=O)NC(=O)[C@H](C(C)(C)C)NC(=O)[C@H](CC3CCCCC3)NC(=O)[C@H](CCN)NC(=O)[C@@H](CC(C)C)NC(=O)[C@H](CCCN)NC(=O)[C@H](Cc3ccc(OCC(=O)O)cc3)NC(=O)[C@H](Cc3ccc(-c4ccccc4)cc3)NC(=O)[C@H](Cc3ccc(OCC(=O)O)cc3)NC2=O)c1 [Compound 3528] ({CH2CO}-RY(Carboxymethyl)D[Phe(3-Me)]Y(Carboxymethyl)[Bip]Y(Carboxymethyl)[Orn][dL][Dab][Cha][Tle]QC[dN][Aun]-OH; thioether N-14)
0.0781 | Cc1cccc(C[C@@H]2NC(=O)[C@H](CC(=O)O)NC(=O)[C@H](Cc3ccc(OCC(=O)O)cc3)NC(=O)[C@H](CCCNC(=N)N)NC(=O)CSC[C@@H](C(=O)N[C@H](CC(N)=O)C(=O)NCCCCCCCCCCC(=O)O)NC(=O)[C@H](CCC(N)=O)NC(=O)[C@H](C(C)O)NC(=O)[C@H](CC3CCCCC3)NC(=O)[C@H](CCN)NC(=O)[C@@H](CC(C)C)NC(=O)[C@H](CCCN)NC(=O)[C@H](Cc3ccc(OCC(=O)O)cc3)NC(=O)[C@H](Cc3ccc(-c4ccccc4)cc3)NC(=O)[C@H](Cc3ccc(OCC(=O)O)cc3)NC2=O)c1 (stereo partly drawn) [Compound 3529] ({CH2CO}-RY(Carboxymethyl)D[Phe(3-Me)]Y(Carboxymethyl)[Bip]Y(Carboxymethyl)[Orn][dL][Dab][Cha][Thr(3ξ)]QC[dN][Aun]-OH; thioether N-14)
0.0073 | Cc1cccc(C[C@@H]2NC(=O)[C@H](CC(=O)O)NC(=O)[C@H](Cc3ccc(OCC(=O)O)cc3)NC(=O)[C@H](CCCNC(=N)N)NC(=O)CSC[C@@H](C(=O)N[C@@H](CCN)C(=O)NCCCCCCCCCCC(=O)O)NC(=O)[C@H](CO)NC(=O)[C@H](C(C)O)NC(=O)[C@H](CC3CCCCC3)NC(=O)[C@H](CCN)NC(=O)[C@@H](CC(C)C)NC(=O)[C@H](CCCN)NC(=O)[C@H](Cc3ccc(OCC(=O)O)cc3)NC(=O)[C@H](Cc3ccc(-c4ccccc4)cc3)NC(=O)[C@H](Cc3ccc(OCC(=O)O)cc3)NC2=O)c1 (stereo partly drawn) [Compound 3530] ({CH2CO}-RY(Carboxymethyl)D[Phe(3-Me)]Y(Carboxymethyl)[Bip]Y(Carboxymethyl)[Orn][dL][Dab][Cha][Thr(3ξ)]SC[Dab][Aun]-OH; thioether N-14)
0.0486 | Cc1cccc(C[C@@H]2NC(=O)[C@H](CC(=O)O)NC(=O)[C@H](Cc3ccc(OCC(=O)O)cc3)NC(=O)[C@H](CCCNC(=N)N)NC(=O)CSC[C@@H](C(=O)N[C@@H](CCN)C(=O)NCCCCCCCCCCC(=O)O)NC(=O)[C@H](CO)NC(=O)[C@H](C(C)(C)C)NC(=O)[C@H](CC3CCCCC3)NC(=O)[C@H](CCN)NC(=O)[C@@H](CC(C)C)NC(=O)[C@H](CCCN)NC(=O)[C@H](Cc3ccc(OCC(=O)O)cc3)NC(=O)[C@H](Cc3ccc(-c4ccccc4)cc3)NC(=O)[C@H](Cc3c[nH]c4ccccc34)NC2=O)c1 [Compound 3531] ({CH2CO}-RY(Carboxymethyl)D[Phe(3-Me)]W[Bip]Y(Carboxymethyl)[Orn][dL][Dab][Cha][Tle]SC[Dab][Aun]-OH; thioether N-14)
0.0075 | Cc1cccc(C[C@@H]2NC(=O)[C@H](CC(=O)O)NC(=O)[C@H](Cc3ccc(OCC(=O)O)cc3)NC(=O)[C@H](CCCNC(=N)N)NC(=O)CSC[C@@H](C(=O)N[C@@H](CCN)C(=O)NCCCCCCCCCCC(=O)O)NC(=O)[C@H](CCC(N)=O)NC(=O)[C@H](C(C)(C)C)NC(=O)[C@H](CC3CCCCC3)NC(=O)[C@H](CCN)NC(=O)[C@@H](CC(C)C)NC(=O)[C@H](CCCN)NC(=O)[C@H](Cc3ccc(OCC(=O)O)cc3)NC(=O)[C@H](Cc3ccc(-c4ccccc4)cc3)NC(=O)[C@H](Cc3ccc(OCC(=O)O)cc3)NC2=O)c1 [Compound 3532] ({CH2CO}-RY(Carboxymethyl)D[Phe(3-Me)]Y(Carboxymethyl)[Bip]Y(Carboxymethyl)[Orn][dL][Dab][Cha][Tle]QC[Dab][Aun]-OH; thioether N-14)
0.0051 | Cc1cccc(C[C@@H]2NC(=O)[C@H](CC(=O)O)NC(=O)[C@H](Cc3ccc(OCC(=O)O)cc3)NC(=O)[C@H](CCCNC(=N)N)NC(=O)CSC[C@@H](C(=O)N[C@@H](CCN)C(=O)NCCCCCCCCCCC(=O)O)NC(=O)[C@H](CCC(N)=O)NC(=O)[C@H](C(C)(C)O)NC(=O)[C@H](CC3CCCCC3)NC(=O)[C@H](CCN)NC(=O)[C@@H](CC(C)C)NC(=O)[C@H](CCCN)NC(=O)[C@H](Cc3ccc(OCC(=O)O)cc3)NC(=O)[C@H](Cc3ccc(-c4ccccc4)cc3)NC(=O)[C@H](Cc3ccc(OCC(=O)O)cc3)NC2=O)c1 [Compound 3533] ({CH2CO}-RY(Carboxymethyl)D[Phe(3-Me)]Y(Carboxymethyl)[Bip]Y(Carboxymethyl)[Orn][dL][Dab][Cha][Val(3-OH)]QC[Dab][Aun]-OH; thioether N-14)
0.0226 | Cc1cccc(C[C@@H]2NC(=O)[C@H](CC(=O)O)NC(=O)[C@H](Cc3ccc(OCC(=O)O)cc3)NC(=O)[C@H](CCCNC(=N)N)NC(=O)CSC[C@@H](C(=O)N[C@@H](CCCCN)C(=O)N[C@@H](CO)C(=O)NCCCCCCCCCCCC(=O)O)NC(=O)[C@H](CN)NC(=O)[C@H](C(C)C)NC(=O)[C@H](CC3CCCCC3)NC(=O)[C@H](CCN)NC(=O)[C@@H](CC(C)C)NC(=O)[C@H](CCCN)NC(=O)[C@H](CCCNC(N)=O)NC(=O)[C@H](Cc3ccc(-c4ccccc4)cc3)NC(=O)[C@H](C(C)C)NC2=O)c1 [Compound 3534] ({CH2CO}-RY(Carboxymethyl)D[Phe(3-Me)]V[Bip][Cit][Orn][dL][Dab][Cha]V[Dap]CKS[12Ado]-OH; thioether N-14)
